pIC50: −log10 of the molar value.
These compounds were tested against hBTK (full-length BTK, 6HIS-tag cleaved) (Homo sapiens (Human), UniProt Q06187) (assay: BTK enzymatic activity, LANCE TR-FRET assay (Assay Method C)). Conditions: LANCE TR-FRET, 50 pM hBTK, 25 μM ATP; class 100-1000 is given as ≧100 nM-<1 μM; read-out: IC50 Btk activity values - Assay Method C.
hBTK (full-length BTK, 6HIS-tag cleaved), sequence (Q06187 whole entry): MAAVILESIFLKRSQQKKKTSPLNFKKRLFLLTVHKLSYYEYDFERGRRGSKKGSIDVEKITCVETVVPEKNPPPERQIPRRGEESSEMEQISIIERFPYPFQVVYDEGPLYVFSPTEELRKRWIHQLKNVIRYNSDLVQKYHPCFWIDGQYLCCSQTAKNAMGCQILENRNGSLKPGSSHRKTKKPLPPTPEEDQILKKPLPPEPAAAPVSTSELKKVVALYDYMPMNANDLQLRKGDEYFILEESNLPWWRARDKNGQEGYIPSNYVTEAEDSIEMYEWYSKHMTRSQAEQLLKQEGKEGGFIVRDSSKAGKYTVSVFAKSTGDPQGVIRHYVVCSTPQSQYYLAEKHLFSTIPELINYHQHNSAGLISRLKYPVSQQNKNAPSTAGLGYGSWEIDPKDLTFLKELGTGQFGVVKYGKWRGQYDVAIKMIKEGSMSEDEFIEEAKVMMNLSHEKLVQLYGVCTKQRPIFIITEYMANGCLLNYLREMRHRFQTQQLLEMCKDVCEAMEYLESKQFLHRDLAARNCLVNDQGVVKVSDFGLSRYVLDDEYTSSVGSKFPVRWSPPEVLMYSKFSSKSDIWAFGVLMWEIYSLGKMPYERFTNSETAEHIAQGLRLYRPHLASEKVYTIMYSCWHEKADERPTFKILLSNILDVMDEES
Format: biochemical
With `CN(C)C(=O)N1C[C@@H](c2nc(-c3ccc(C(=O)Nc4cc(C(F)(F)F)ccn4)cc3)c3c(N)nccn23)CC[C@@H]1C(F)(F)F` [Example 426, (2R,5S)-5-[8-amino-1-(4-{[4-(trifluoromethyl)pyridin-2-yl]carbamoyl}phenyl)imidazo[1,5-a]pyrazin-3-yl]-N,N-dimethyl-2-(trifluoromethyl)piperidine-1-carboxamide] the pIC50 was greater than 8.00.
For `CC(=O)N1C[C@@H](c2nc(-c3ccc(C(=O)Nc4cc(C(F)(F)F)ccn4)cc3)c3c(N)nccn23)CC[C@@H]1C(F)(F)F` [Example 427, 4-{3-[(3S,6R)-1-acetyl-6-(trifluoromethyl)piperidin-3-yl]-8-aminoimidazo[1,5-a]pyrazin-1-yl}-N-[4-(trifluoromethyl)pyridin-2-yl]benzamide], the pIC50 was greater than 8.00.
In the case of `COC(=O)N1C[C@@H](c2nc(-c3ccc(C(=O)Nc4cc(C(F)(F)F)ccn4)cc3)c3c(N)nccn23)CC[C@@H]1C(F)(F)F` [Example 430, methyl (2R,5S)-5-[8-amino-1-(4-{[4-(trifluoromethyl)pyridin-2-yl]carbamoyl}phenyl)imidazo[1,5-a]pyrazin-3-yl]-2-(trifluoromethyl)piperidine-1-carboxylate], the pIC50 was greater than 8.00.
`C[C@H]1CC[C@@H](c2nc(-c3ccc(C(=O)Nc4cc(C(F)F)ccn4)cc3F)c3c(N)nccn23)CN1C(=O)C1(C)COC1` [Example 434, 4-(8-amino-3-{(3R,6S)-6-methyl-1-[(3-methyloxetan-3-yl)carbonyl]piperidin-3-yl}imidazo[1,5-a]pyrazin-1-yl)-N-[4-(difluoromethyl)pyridin-2-yl]-3-fluorobenzamide] gave a pIC50 greater than 8.00.
With `CC(=O)N1C[C@H](c2nc(-c3ccc(C(=O)Nc4cc(C(F)F)ccn4)cc3F)c3c(N)nccn23)CC[C@@H]1C` [Example 435, 4-{3-[(3R,6S)-1-acetyl-6-methylpiperidin-3-yl]-8-aminoimidazo[1,5-a]pyrazin-1-yl}-N-[4-(difluoromethyl)pyridin-2-yl]-3-fluorobenzamide] the pIC50 was greater than 8.00.
`C[C@H]1CC[C@@H](c2nc(-c3ccc(C(=O)Nc4cc(C(F)F)ccn4)cc3F)c3c(N)nccn23)CN1C(=O)C1CC1` [Example 436, 4-{8-amino-3-[(3R,6S)-1-(cyclopropylcarbonyl)-6-methylpiperidin-3-yl]imidazo[1,5-a]pyrazin-1-yl}-N-[4-(difluoromethyl)pyridin-2-yl]-3-fluorobenzamide] was tested, and the pIC50 was greater than 8.00.
With `Nc1nccn2c([C@H]3CC[C@H](C(F)(F)F)N(CCO)C3)nc(-c3ccc(C(=O)Nc4cc(C(F)(F)F)ccn4)cc3)c12` [Example 437, 4-{8-amino-3-[(3S,6R)-1-(2-hydroxyethyl)-6-(trifluoromethyl)piperidin-3-yl]imidazo[1,5-a]pyrazin-1-yl}-N-[4-(trifluoromethyl)pyridin-2-yl]benzamide] the pIC50 was greater than 8.00.
In the case of `CC1(C(=O)N2CCC[C@@](C)(c3nc(-c4ccc(C(=O)Nc5cc(C(F)(F)F)ccn5)cc4)c4c(N)nccn34)C2)COC1` [Example 438, 4-(8-amino-3-{(3R)-3-methyl-1-[(3-methyloxetan-3-yl)carbonyl]piperidin-3-yl}imidazo[1,5-a]pyrazin-1-yl)-N-[4-(trifluoromethyl)pyridin-2-yl]benzamide], the pIC50 was greater than 8.00.
Compound `CC1(C(=O)N2CCC[C@@](O)(c3nc(-c4ccc(C(=O)Nc5cc(C(F)(F)F)ccn5)cc4)c4c(N)nccn34)C2)COC1` [Example 439, 4-(8-amino-3-{(3S)-3-hydroxy-1-[(3-methyloxetan-3-yl)carbonyl]piperidin-3-yl}imidazo[1,5-a]pyrazin-1-yl)-N-[4-(trifluoromethyl)pyridin-2-yl]benzamide] has a pIC50 greater than 8.00.
Compound `CC(=O)N1CCC[C@@H](c2nc(-c3ccc(C(=O)Nc4cc(C(F)(F)F)ccn4)cc3)c3c(N)ncc(Cl)n23)C1` [Example 440, 4-{3-[(3R)-1-acetylpiperidin-3-yl]-8-amino-5-chloroimidazo[1,5-a]pyrazin-1-yl}-N-[4-(trifluoromethyl)pyridin-2-yl]benzamide] has a pIC50 greater than 8.00.
`Nc1ncc(Cl)n2c([C@@H]3CCCN(C(=O)CO)C3)nc(-c3ccc(C(=O)Nc4cc(C(F)(F)F)ccn4)cc3)c12` [Example 441, 4-{8-amino-5-chloro-3-[(3R)-1-(hydroxyacetyl)piperidin-3-yl]imidazo[1,5-a]pyrazin-1-yl}-N-[4-(trifluoromethyl)pyridin-2-yl]benzamide] showed a pIC50 greater than 8.00.
In the case of `COCC(=O)N1CCC[C@@H](c2nc(-c3ccc(C(=O)Nc4cc(C(F)(F)F)ccn4)cc3)c3c(N)ncc(Cl)n23)C1` [Example 442, 4-{8-amino-5-chloro-3-[(3R)-1-(methoxyacetyl)piperidin-3-yl]imidazo[1,5-a]pyrazin-1-yl}-N-[4-(trifluoromethyl)pyridin-2-yl]benzamide], the pIC50 was greater than 8.00.
`Nc1ncc(Cl)n2c([C@@H]3CCCN(C=O)C3)nc(-c3ccc(C(=O)Nc4cc(C(F)(F)F)ccn4)cc3)c12` [Example 443, 4-{8-amino-5-chloro-3-[(3R)-1-formylpiperidin-3-yl]imidazo[1,5-a]pyrazin-1-yl}-N-[4-(trifluoromethyl)pyridin-2-yl]benzamide] was tested, and the pIC50 was greater than 8.00.
In the case of `COc1ccnc(NC(=O)c2ccc(-c3nc([C@@H]4CCCN(C(=O)C5(C)COC5)C4)n4c(Cl)cnc(N)c34)cc2)c1` [Example 444, 4-(8-amino-5-chloro-3-{(3R)-1-[(3-methyloxetan-3-yl)carbonyl]piperidin-3-yl}imidazo[1,5-a]pyrazin-1-yl)-N-(4-methoxypyridin-2-yl)benzamide], the pIC50 was greater than 8.00.
`CC1(C(=O)N2CCC[C@@H](c3nc(-c4ccc(C(=O)Nc5cc(C#N)ccn5)cc4)c4c(N)ncc(Cl)n34)C2)COC1` [Example 445, 4-(8-amino-5-chloro-3-{(3R)-1-[(3-methyloxetan-3-yl)carbonyl]piperidin-3-yl}imidazo[1,5-a]pyrazin-1-yl)-N-(4-cyanopyridin-2-yl)benzamide] was tested, and the pIC50 was greater than 8.00.
`Cc1ccnc(NC(=O)c2ccc(-c3nc([C@@H]4CCCN(C(=O)C5(C)COC5)C4)n4c(Cl)cnc(N)c34)cc2)c1` [Example 446, 4-(8-amino-5-chloro-3-{(3R)-1-[(3-methyloxetan-3-yl)carbonyl]piperidin-3-yl}imidazo[1,5-a]pyrazin-1-yl)-N-(4-methylpyridin-2-yl)benzamide] showed a pIC50 greater than 8.00.
For `CC1(C(=O)N2CCC[C@@H](c3nc(-c4ccc(C(=O)Nc5cc(C(F)(F)F)ccn5)cc4F)c4c(N)ncc(Cl)n34)C2)COC1` [Example 447, 4-(8-amino-5-chloro-3-{(3R)-1-[(3-methyloxetan-3-yl)carbonyl]piperidin-3-yl}imidazo[1,5-a]pyrazin-1-yl)-3-fluoro-N-[4-(trifluoromethyl)pyridin-2-yl]benzamide], the pIC50 was greater than 8.00.
`Cc1ccnc(NC(=O)c2ccc(-c3nc([C@@H]4CCCN(C(=O)C5(C)COC5)C4)n4c(Cl)cnc(N)c34)c(F)c2)c1` [Example 448, 4-(8-amino-5-chloro-3-{(3R)-1-[(3-methyloxetan-3-yl)carbonyl]piperidin-3-yl}imidazo[1,5-a]pyrazin-1-yl)-3-fluoro-N-(4-methylpyridin-2-yl)benzamide] showed a pIC50 greater than 8.00.
`COCc1cnc(N)c2c(-c3ccc(C(=O)Nc4cc(C(F)(F)F)ccn4)cc3)nc([C@@H]3CCCN(C(=O)C4(C)COC4)C3)n12` [Example 449, 4-[8-amino-5-(methoxymethyl)-3-{(3R)-1-[(3-methyloxetan-3-yl)carbonyl]piperidin-3-yl}imidazo[1,5-a]pyrazin-1-yl]-N-[4-(trifluoromethyl)pyridin-2-yl]benzamide] was tested, and the pIC50 was greater than 8.00.
`COCc1cnc(N)c2c(-c3ccc(C(=O)Nc4cc(C(F)(F)F)ccn4)cc3)nc([C@@H]3CC[C@H](C)N(C(=O)C4(C)COC4)C3)n12` [Example 450, 4-[8-amino-5-(methoxymethyl)-3-{(3R,6S)-6-methyl-1-[(3-methyloxetan-3-yl)carbonyl]piperidin-3-yl}imidazo[1,5-a]pyrazin-1-yl]-N-[4-(trifluoromethyl)pyridin-2-yl]benzamide] showed a pIC50 greater than 8.00.
For `COCc1cnc(N)c2c(-c3ccc(C(=O)Nc4cc(C(F)(F)F)ccn4)cc3F)nc([C@@H]3CCCN(C(=O)C4(C)COC4)C3)n12` [Example 451, 4-[8-amino-5-(methoxymethyl)-3-{(3R)-1-[(3-methyloxetan-3-yl)carbonyl]piperidin-3-yl}imidazo[1,5-a]pyrazin-1-yl]-3-fluoro-N-[4-(trifluoromethyl)pyridin-2-yl]benzamide], the pIC50 was greater than 8.00.
With `COCC(=O)N1CCC[C@@H](c2nc(-c3ccc(C(=O)Nc4cc(C(F)(F)F)ccn4)cc3F)c3c(N)ncc(COC)n23)C1` [Example 452, 4-{8-amino-3-[(3R)-1-(methoxyacetyl)piperidin-3-yl]-5-(methoxymethyl)imidazo[1,5-a]pyrazin-1-yl}-3-fluoro-N-[4-(trifluoromethyl)pyridin-2-yl]benzamide] the pIC50 was greater than 8.00.
For `Cc1cnc(N)c2c(-c3ccc(C(=O)Nc4cc(C(F)(F)F)ccn4)cc3)nc([C@@H]3CCCN(C(=O)C4(C)COC4)C3)n12` [Example 453, 4-(8-amino-5-methyl-3-{(3R)-1-[(3-methyloxetan-3-yl)carbonyl]piperidin-3-yl}imidazo[1,5-a]pyrazin-1-yl)-N-[4-(trifluoromethyl)pyridin-2-yl]benzamide], the pIC50 was greater than 8.00.
`Cc1cnc(N)c2c(-c3ccc(C(=O)Nc4cc(C(C)(F)F)ccn4)cc3)nc([C@@H]3CCCN(C(=O)C4(C)COC4)C3)n12` [Example 454, 4-(8-amino-5-methyl-3-{(3R)-1-[(3-methyloxetan-3-yl)carbonyl]piperidin-3-yl}imidazo[1,5-a]pyrazin-1-yl)-N-[4-(1,1-difluoroethyl)pyridin-2-yl]benzamide] gave a pIC50 greater than 8.00.
For `CCc1ccnc(NC(=O)c2ccc(-c3nc([C@@H]4CCCN(C(=O)C5(C)COC5)C4)n4c(C)cnc(N)c34)cc2)c1` [Example 455, 4-(8-amino-5-methyl-3-{(3R)-1-[(3-methyloxetan-3-yl)carbonyl]piperidin-3-yl}imidazo[1,5-a]pyrazin-1-yl)-N-(4-ethylpyridin-2-yl)benzamide], the pIC50 was greater than 8.00.

Same assay, conditions: Table D; Assay Method C (LANCE TR-FRET), 50 pM hBTK, 25 μM ATP; read-out: IC50 BTK activity value
With `C[C@H]1CC[C@@H](c2nc(-c3ccc(C(=O)Nc4cc(C(F)F)ccn4)cc3F)c3c(N)nccn23)CN1C(=O)C1CC1` [Example 436, 4-{8-amino-3-[(3R,6S)-1-(cyclopropylcarbonyl)-6-methylpiperidin-3-yl]imidazo[1,5-a]pyrazin-1-yl}-N-[4-(difluoromethyl)pyridin-2-yl]-3-fluorobenzamide] the pIC50 was 9.32.
`COCc1cnc(N)c2c(-c3ccc(C(=O)Nc4cc(C(F)(F)F)ccn4)cc3)nc([C@@H]3CCCN(C(=O)C4(C)COC4)C3)n12` [Example 449, 4-[8-amino-5-(methoxymethyl)-3-{(3R)-1-[(3-methyloxetan-3-yl)carbonyl]piperidin-3-yl}imidazo[1,5-a]pyrazin-1-yl]-N-[4-(trifluoromethyl)pyridin-2-yl]benzamide] showed a pIC50 of 9.18.
